Test results as given in ChEMBL document CHEMBL1201862, “PubChem BioAssay data set” (2004).
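Protocol summary: plate cells (96-well), add compound at 5 concentrations, incubate 48 h, interpolate endpoints linearly. Abbreviation: GI50, concentration required for 50% inhibition of growth.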 Activity calls are given as the source filed them. No stated cut-off is given here; in the data, active = GI50 up to about 1.1 µM and inactive = higher.

Experiments:
Experiment in all cases: growth of human tumour cells (NCI), 48 h
786-0 = tested on: 786-0
A498 = tested on: A498
A549 = tested on: A549
ACHN = tested on: ACHN
CAKI-1 = tested on: CAKI-1
CCRF-CEM = tested on: CCRF-CEM
COLO 205 = tested on: COLO 205
DLD-1 = tested on: DLD-1
DMS-114 = tested on: DMS-114
DMS-273 = tested on: DMS-273
EKVX = tested on: EKVX
HCC 2998 = tested on: HCC 2998
HCT-116 = tested on: HCT-116
HL-60 = tested on: HL-60
HOP-18 = tested on: HOP-18
HOP-62 = tested on: HOP-62
HOP-92 = tested on: HOP-92
HT-29 = tested on: HT-29
IGROV-1 = tested on: IGROV-1
K562 = tested on: K562
KM-20L2 = tested on: KM-20L2
KM12 = tested on: KM12
LOX IMVI = tested on: LOX IMVI
LXFL 529 = tested on: LXFL 529
M14 = tested on: M14
M19-MEL = tested on: M19-MEL
MOLT-4 = tested on: MOLT-4
Malme-3M = tested on: Malme-3M
NCI-H226 = tested on: NCI-H226
NCI-H23 = tested on: NCI-H23
NCI-H460 = tested on: NCI-H460
NCI-H522 = tested on: NCI-H522
OVCAR-3 = tested on: OVCAR-3
OVCAR-4 = tested on: OVCAR-4
OVCAR-5 = tested on: OVCAR-5
OVCAR-8 = tested on: OVCAR-8
RXF 393 = tested on: RXF 393
RXF 631 = tested on: RXF 631
SF-268 = tested on: SF-268
SF-295 = tested on: SF-295
SF-539 = tested on: SF-539
SK-MEL-28 = tested on: SK-MEL-28
SK-MEL-2 = tested on: SK-MEL-2
SK-MEL-5 = tested on: SK-MEL-5
SK-OV-3 = tested on: SK-OV-3
SN12C = tested on: SN12C
SNB-19 = tested on: SNB-19
SNB-75 = tested on: SNB-75
SNB-78 = tested on: SNB-78
SR = tested on: SR
TK-10 = tested on: TK-10
U-251 = tested on: U-251
UACC-257 = tested on: UACC-257
UACC-62 = tested on: UACC-62
UO-31 = tested on: UO-31
XF498 = tested on: XF498
SW-620 = tested on: SW-620

Measured: GI50

CC#C[I+]c1ccccc1
inactive: 786-0 14.6 µM | A498 60.5 µM | A549 63.8 µM | ACHN 15.7 µM | CAKI-1 14.1 µM | CCRF-CEM 4.17 µM | COLO 205 12.9 µM | DLD-1 14.3 µM | DMS-114 13.2 µM | DMS-273 13.1 µM | EKVX 16.2 µM | HCC 2998 20 µM | HCT-116 19 µM | HL-60 15 µM | HOP-18 16.6 µM | HOP-62 35.3 µM | HOP-92 16.4 µM | HT-29 17.3 µM | IGROV-1 37.4 µM | K562 15.8 µM | KM-20L2 17 µM | KM12 16.5 µM | LOX IMVI 13.8 µM | LXFL 529 13.4 µM | M14 17.3 µM | M19-MEL 17.8 µM | MOLT-4 12.1 µM | Malme-3M 18.9 µM | NCI-H226 33 µM | NCI-H23 18.1 µM | NCI-H460 35.5 µM | NCI-H522 3.05 µM | OVCAR-3 17.5 µM | OVCAR-4 17.3 µM | OVCAR-5 32.7 µM | OVCAR-8 15.1 µM | RXF 393 19.1 µM | RXF 631 31.1 µM | SF-268 19.1 µM | SF-295 69.3 µM | SF-539 18.2 µM | SK-MEL-28 23.6 µM | SK-MEL-2 28.1 µM | SK-MEL-5 23.4 µM | SK-OV-3 30.3 µM | SN12C 12.3 µM | SNB-19 64.6 µM | SNB-75 50 µM | SNB-78 22.7 µM | SR 15.1 µM | TK-10 16.4 µM | U-251 15 µM | UACC-257 20.9 µM | UACC-62 22.3 µM | UO-31 30.3 µM | XF498 16.7 µM

COC(=O)c1cc(Br)c(Br)n1C
inactive: 786-0 > 100 µM | A498 > 100 µM | A549 > 100 µM | ACHN > 100 µM | CAKI-1 > 100 µM | CCRF-CEM > 100 µM | COLO 205 > 100 µM | DLD-1 81.8 µM | DMS-114 > 100 µM | DMS-273 > 100 µM | EKVX 42.7 µM | HCC 2998 > 100 µM | HCT-116 > 100 µM | HL-60 > 100 µM | HOP-18 > 100 µM | HOP-62 > 100 µM | HOP-92 > 100 µM | HT-29 > 100 µM | IGROV-1 > 100 µM | K562 > 100 µM | KM-20L2 > 100 µM | KM12 > 100 µM | LOX IMVI > 100 µM | LXFL 529 > 100 µM | M14 > 100 µM | M19-MEL > 100 µM | MOLT-4 70.3 µM | Malme-3M > 100 µM | NCI-H226 > 100 µM | NCI-H23 > 100 µM | NCI-H522 39.4 µM | OVCAR-3 > 100 µM | OVCAR-4 > 100 µM | OVCAR-5 > 100 µM | OVCAR-8 > 100 µM | RXF 393 > 100 µM | RXF 631 > 100 µM | SF-268 > 100 µM | SF-295 > 100 µM | SF-539 > 100 µM | SK-MEL-28 > 100 µM | SK-MEL-5 > 100 µM | SK-OV-3 > 100 µM | SN12C > 100 µM | SNB-19 > 100 µM | SNB-75 > 100 µM | SNB-78 > 100 µM | SR 33.9 µM | SW-620 > 100 µM | TK-10 > 100 µM | U-251 > 100 µM | UACC-257 > 100 µM | UACC-62 > 100 µM | UO-31 > 100 µM | XF498 > 100 µM
